From BindingDB's records for PubMed 9223568 (Yamanouchi Pharmaceutical, 1997)
pKi: −log10 of the molar value. Values joined by “and” are separate entries in the source; they are usually repeats but may differ in a detail not shown here. Equal values may be shown once. Numbered stars: 1 amine (or outer) side, 2 acyl side, 3 side chain; on linkers, the order of the positions; unused ones are H or OH. Bridge positions count the residues as written; N and C are the ends. Peptide text beside a SMILES is read from it. X1 = O=C(CC1(S[*:2])CCCCC1)[*:1]

Columns and labels:
Oxytocin receptor = biological target: T1, Oxytocin receptor (Rattus norvegicus, UniProt P70536)
T1 sequence (P70536 whole entry): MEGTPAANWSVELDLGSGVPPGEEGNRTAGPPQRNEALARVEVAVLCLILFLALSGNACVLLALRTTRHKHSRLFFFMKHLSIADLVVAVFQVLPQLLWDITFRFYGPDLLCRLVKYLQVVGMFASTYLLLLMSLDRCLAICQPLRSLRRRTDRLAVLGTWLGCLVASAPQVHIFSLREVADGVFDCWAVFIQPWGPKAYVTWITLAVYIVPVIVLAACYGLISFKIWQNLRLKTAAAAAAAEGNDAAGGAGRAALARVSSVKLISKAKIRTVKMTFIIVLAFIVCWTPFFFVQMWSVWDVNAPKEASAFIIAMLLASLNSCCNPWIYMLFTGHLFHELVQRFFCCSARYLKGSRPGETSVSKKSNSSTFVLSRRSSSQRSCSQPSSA

Vasopressin V1a receptor = Vasopressin V1a receptor (Rattus norvegicus, UniProt P30560)
Vasopressin V1b receptor = biological target: T2, Vasopressin V1b receptor (Rattus norvegicus, UniProt P48974)
T2 sequence (P48974 whole entry): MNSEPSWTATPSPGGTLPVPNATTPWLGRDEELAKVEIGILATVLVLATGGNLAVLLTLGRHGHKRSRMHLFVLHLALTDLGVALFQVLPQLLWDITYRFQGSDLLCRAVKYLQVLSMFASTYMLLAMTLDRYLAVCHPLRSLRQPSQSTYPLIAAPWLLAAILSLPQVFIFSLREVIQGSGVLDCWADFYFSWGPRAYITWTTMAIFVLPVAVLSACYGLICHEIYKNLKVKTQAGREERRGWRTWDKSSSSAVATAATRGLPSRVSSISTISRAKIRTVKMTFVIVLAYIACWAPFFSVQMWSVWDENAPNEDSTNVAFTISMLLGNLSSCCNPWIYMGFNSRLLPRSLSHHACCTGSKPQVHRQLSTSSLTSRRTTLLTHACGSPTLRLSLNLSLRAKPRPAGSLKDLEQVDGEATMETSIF

Vasopressin V2 receptor = Vasopressin V2 receptor (Rattus norvegicus, UniProt Q00788)
Chain of Vasopressin V2 receptor (Q00788 whole entry): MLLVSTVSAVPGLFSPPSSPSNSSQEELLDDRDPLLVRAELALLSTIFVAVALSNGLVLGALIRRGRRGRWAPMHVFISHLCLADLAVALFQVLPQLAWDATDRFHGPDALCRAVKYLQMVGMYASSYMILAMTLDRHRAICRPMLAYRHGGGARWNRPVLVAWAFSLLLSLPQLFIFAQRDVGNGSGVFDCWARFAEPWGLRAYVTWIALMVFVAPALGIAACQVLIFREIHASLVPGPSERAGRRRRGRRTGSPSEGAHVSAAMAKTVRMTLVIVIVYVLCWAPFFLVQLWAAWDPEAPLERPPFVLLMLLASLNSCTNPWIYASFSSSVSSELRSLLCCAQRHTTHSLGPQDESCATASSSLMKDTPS

Chain of Vasopressin V1a receptor (P30560 whole entry): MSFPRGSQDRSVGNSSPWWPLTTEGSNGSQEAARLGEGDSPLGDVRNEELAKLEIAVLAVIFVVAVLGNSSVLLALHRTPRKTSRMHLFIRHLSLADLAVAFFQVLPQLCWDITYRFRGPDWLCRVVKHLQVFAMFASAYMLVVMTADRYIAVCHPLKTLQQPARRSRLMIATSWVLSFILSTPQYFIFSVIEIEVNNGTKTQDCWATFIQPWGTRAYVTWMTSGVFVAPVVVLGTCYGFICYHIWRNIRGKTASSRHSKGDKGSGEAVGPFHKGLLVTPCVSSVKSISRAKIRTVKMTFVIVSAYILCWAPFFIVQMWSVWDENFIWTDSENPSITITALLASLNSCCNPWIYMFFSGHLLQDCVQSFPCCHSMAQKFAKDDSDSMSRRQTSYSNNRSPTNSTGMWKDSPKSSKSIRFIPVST

**Q.** `Cc1ccccc1C(=O)Nc1ccc(C(=O)N2CCCC(N(C)C)c3ccccc32)cc1` (stereo not given) was tested. Which pKi (Oxytocin receptor) did it give?
**A.** 5.81

**Q.** And the pKi (Vasopressin V1a receptor)?
**A.** 6.63

**Q.** And the pKi (Vasopressin V1b receptor)?
**A.** < 5.00

**Q.** Which results are given for `Cc1nc2c([nH]1)-c1ccccc1N(C(=O)c1ccc(NC(=O)c3ccccc3-c3ccccc3)cc1)CC2` [CONIVAPTAN]?
**A.** pKi (Vasopressin V2 receptor): 8.52 and 9.42; pKi (Oxytocin receptor): 7.35; pKi (Vasopressin V1a receptor): 9.32 and 9.62; pKi (Vasopressin V1b receptor): < 5.00

**Q.** With `CC(=O)NCCCOc1ccc(C(=O)N2CCC(N3C(=O)CCc4ccccc43)CC2)cc1` [N-(3-(4-(4-(2-oxo-3,4-dihydroquinolin-1(2H)-yl)piperidine-1-carbonyl)phenoxy)propyl)acetamide] as the compound, how does the pKi (Vasopressin V2 receptor) read?
**A.** < 5.00

**Q.** What about the pKi (Oxytocin receptor) of the same compound?
**A.** 6.48

**Q.** And the pKi (Vasopressin V1a receptor)?
**A.** 7.63 and 7.83

**Q.** And the pKi (Vasopressin V1b receptor)?
**A.** < 5.00

**Q.** `NC(=O)CC[C@@H]1NC(=O)[C@H](Cc2ccccc2)NC(=O)[C@H](Cc2ccc(O)cc2)NC(=O)CCSSC[C@@H](C(=O)N2CCC[C@H]2C(=O)N[C@H](CCCN=C(N)N)C(=O)NCC(N)=O)NC(=O)[C@H](CC(N)=O)NC1=O` [NSC_64759] was tested. Which pKi (Vasopressin V2 receptor) did it give?
**A.** 8.71 and 8.10

**Q.** With `COc1ccc(C[C@@H]2NC(=O)CC3(CCCCC3)SSC[C@@H](C(=O)N3CCC[C@H]3C(=O)N[C@@H](CCCN=C(N)N)C(=O)NCC(N)=O)NC(=O)[C@H](CC(N)=O)NC(=O)[C@H](CCC(N)=O)NC(=O)[C@H](Cc3ccccc3)NC2=O)cc1` [NSC_105077] (Y(Me)FQNCPRG-NH2; linker N-5 via X1) as the compound, how does the pKi (Vasopressin V2 receptor) read?
**A.** 7.40 and 7.00

**Q.** And the pKi (Vasopressin V1a receptor)?
**A.** 8.75 and 9.48

**Q.** What about the pKi (Vasopressin V1b receptor) of the same compound?
**A.** 7.42
